Laboratory results published in EP0542371A1, “Saccharin derivative proteolytic enzyme inhibitors” (STERLING WINTHROP INC., priority 1991, dated 1993).

How the values were obtained:
[1] = pKa by ultraviolet spectrophotometric determination in water; assay type: physicochemical
[2] = pKa determination by titration in water; assay type: physicochemical
human leukocyte elastase = target: T1, human leukocyte elastase (Homo sapiens, UniProt P08246); experiment: Inhibition of human leukocyte elastase, in vitro (Ki* = koff/kon); assay type: biochemical; conditions: Ki* = koff/kon (rate of reactivation divided by rate of inactivation of the enzyme); calculated from measured koff and kon
T1 sequence (P08246 30-267): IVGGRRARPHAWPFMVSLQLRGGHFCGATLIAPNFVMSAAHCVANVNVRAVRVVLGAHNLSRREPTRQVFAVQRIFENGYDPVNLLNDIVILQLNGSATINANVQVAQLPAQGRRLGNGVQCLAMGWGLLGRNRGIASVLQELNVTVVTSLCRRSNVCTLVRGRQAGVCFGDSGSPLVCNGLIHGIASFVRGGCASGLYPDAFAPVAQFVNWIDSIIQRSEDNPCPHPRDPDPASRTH
Procedure: Ki*, which is defined as the rate of reactivation of the enzyme divided by the rate of inactivation of the enzyme (koff/on), was therefore determined instead. The values of koff and kon were measured and Ki* was then calculated.
The value of kon was determined by measuring the enzyme activity of an aliquot of the enzyme as a function of the time after addition of the test compound (inhibitor). […] The value of kon was then obtained by the equation kon = kobs[I] wherein [I] is the concentration of the inhibitor. The value of koff was similarly determined, and Ki* was then obtained by the equation Ki* = koff/kon.

pKa [1]	pKa [2]	Ki (human leukocyte elastase) [nM]	SMILES
5.3			NC(=O)c1nn[nH]c1C(N)=O [1,2,3-triazole-4,5-dicarboxamide]
	4.4		COC(=O)c1nn[nH]c1C(=O)OC [1,2,3-triazole-4,5-dicarboxylic acid dimethyl ester]
	1.6		N#Cc1nn[nH]c1C#N [1,2,3-triazole-4,5-dinitrile]
2.9			Sc1nnnn1-c1ccccc1 [1-phenyltetrazole-5-thiol]
		0.024	COc1cc(C(C)C)c2c(c1)S(=O)(=O)N(Cn1nnc(S(=O)(=O)C(C)(C)C)c1S(=O)(=O)C(C)(C)C)C2=O [Example 1, 2-[4,5-di(t-butylsulfonyl)-1,2,3-triazol-1-yl]methyl-4-isopropyl-6-methoxysaccharin]
		0.014	COc1cc(C(C)C)c2c(c1)S(=O)(=O)N(COC(=O)c1c(Cl)ccc(OCCN3CCOCC3)c1Cl)C2=O [Example 2, 2-{2,6-dichloro-3-[2-(4-morpholinylethoxy)]benzoyloxymethyl}-4-isopropyl-6-methoxysaccharin]
